Laboratory results as given in paper PMC5513037, “Examining the influence of specificity ligands and ATP-competitive ligands on the overall effectiveness of bivalent kinase inhibitors” (Proteome Science, 2017).

How the values were obtained:
[1] = KAM-matrix competition in K562 lysate; assay type: binding, human; conditions: read-out: RB50 (the source's name)
Experimental: (§1) Supplement 12953_2017_125_MOESM1_ESM.zip/MS_Supp Info.xlsx, sheet "KAM" | column: 10 uM KAM; 1 uM KAM; 0.1 uM KAM; 0.01 uM KAM; 0.001 uM KAM; RB50

[2] = biological target: T1, BTK (Homo sapiens, UniProt Q06187); test: KAM-matrix competition in K562 lysate; assay type: binding
T1 construct: endogenous in cells; host or cells: K562
Experimental: as §1

[3] = biological target: T2, EPHB4 (Homo sapiens, UniProt P54760); test: KAM-matrix competition in K562 lysate; assay type: binding
T2 construct: endogenous in cells; host or cells: K562
T2 sequence (P54760 16-987): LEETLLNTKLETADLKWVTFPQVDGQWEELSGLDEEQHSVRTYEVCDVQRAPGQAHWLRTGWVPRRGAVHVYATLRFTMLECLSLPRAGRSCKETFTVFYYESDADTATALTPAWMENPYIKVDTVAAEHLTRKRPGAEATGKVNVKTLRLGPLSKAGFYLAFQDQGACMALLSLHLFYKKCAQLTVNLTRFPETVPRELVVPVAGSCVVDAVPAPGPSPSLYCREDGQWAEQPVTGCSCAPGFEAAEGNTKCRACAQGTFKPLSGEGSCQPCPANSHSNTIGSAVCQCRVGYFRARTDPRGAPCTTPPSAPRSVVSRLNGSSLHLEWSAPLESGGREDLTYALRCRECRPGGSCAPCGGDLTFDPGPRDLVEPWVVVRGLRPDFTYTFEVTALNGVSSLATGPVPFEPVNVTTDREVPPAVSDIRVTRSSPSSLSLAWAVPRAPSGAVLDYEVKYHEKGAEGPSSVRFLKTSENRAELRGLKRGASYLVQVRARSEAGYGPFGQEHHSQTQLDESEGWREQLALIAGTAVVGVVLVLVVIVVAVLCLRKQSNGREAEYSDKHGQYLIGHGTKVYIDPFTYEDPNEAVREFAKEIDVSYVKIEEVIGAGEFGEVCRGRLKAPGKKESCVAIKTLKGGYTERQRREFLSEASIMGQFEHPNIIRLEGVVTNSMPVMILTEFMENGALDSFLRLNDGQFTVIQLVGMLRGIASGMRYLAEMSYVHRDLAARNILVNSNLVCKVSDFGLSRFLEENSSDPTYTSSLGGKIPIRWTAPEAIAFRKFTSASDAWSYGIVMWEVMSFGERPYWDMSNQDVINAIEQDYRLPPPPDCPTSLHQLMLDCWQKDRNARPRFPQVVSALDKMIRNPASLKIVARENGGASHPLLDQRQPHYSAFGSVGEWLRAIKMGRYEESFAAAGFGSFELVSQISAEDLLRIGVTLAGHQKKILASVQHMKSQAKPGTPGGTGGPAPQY
Experimental: as §1

[4] = biological target: T3, LYN (Homo sapiens, UniProt P07948); test: KAM-matrix competition in K562 lysate; assay type: binding
T3 construct: endogenous in cells; host or cells: K562
Experimental: as §1

[5] = biological target: T4, MAPK7 (Homo sapiens, UniProt Q13164); test: KAM-matrix competition in K562 lysate; assay type: binding;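 on 0.001 uM KAM: median log10 fold change of treatment over DMSO control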;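 on 0.01 uM KAM: median log10 fold change of treatment over DMSO control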;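 on 0.1 uM KAM: median log10 fold change of treatment over DMSO control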;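 on 1 uM KAM: median log10 fold change of treatment over DMSO control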;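 on 10 uM KAM: median log10 fold change of treatment over DMSO control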
T4 construct: endogenous in cells; host or cells: K562
Experimental: as §1

[6] = biological target: T5, TLK1 (Homo sapiens, UniProt Q9UKI8); test: KAM-matrix competition in K562 lysate; assay type: binding;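 on 0.001 uM KAM: median log10 fold change of treatment over DMSO control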;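 on 0.01 uM KAM: median log10 fold change of treatment over DMSO control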;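 on 0.1 uM KAM: median log10 fold change of treatment over DMSO control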;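 on 1 uM KAM: median log10 fold change of treatment over DMSO control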;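 on 10 uM KAM: median log10 fold change of treatment over DMSO control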
T5 construct: endogenous in cells; host or cells: K562 cells (combined S0.8 and P0.8 lysate)
T5 sequence (Q9UKI8 1-766): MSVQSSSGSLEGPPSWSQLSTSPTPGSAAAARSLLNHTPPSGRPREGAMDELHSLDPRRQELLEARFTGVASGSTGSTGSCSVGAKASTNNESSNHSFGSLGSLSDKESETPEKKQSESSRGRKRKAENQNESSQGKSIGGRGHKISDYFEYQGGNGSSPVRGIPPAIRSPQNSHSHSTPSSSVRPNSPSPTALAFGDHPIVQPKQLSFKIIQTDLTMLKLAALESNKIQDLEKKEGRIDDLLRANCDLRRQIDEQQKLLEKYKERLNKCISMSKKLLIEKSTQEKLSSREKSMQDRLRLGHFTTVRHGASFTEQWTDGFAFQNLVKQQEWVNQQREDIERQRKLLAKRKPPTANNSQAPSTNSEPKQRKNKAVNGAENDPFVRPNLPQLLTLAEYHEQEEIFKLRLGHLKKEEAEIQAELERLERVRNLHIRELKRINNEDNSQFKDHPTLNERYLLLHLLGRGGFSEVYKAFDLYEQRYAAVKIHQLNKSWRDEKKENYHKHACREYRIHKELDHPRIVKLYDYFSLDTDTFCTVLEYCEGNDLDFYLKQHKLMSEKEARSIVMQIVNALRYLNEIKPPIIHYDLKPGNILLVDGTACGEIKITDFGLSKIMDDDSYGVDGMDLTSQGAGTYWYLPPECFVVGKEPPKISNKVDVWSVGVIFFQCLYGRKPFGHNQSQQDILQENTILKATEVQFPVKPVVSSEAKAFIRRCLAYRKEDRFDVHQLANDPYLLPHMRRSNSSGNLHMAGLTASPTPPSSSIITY
Experimental: as §1

[7] = biological target: T6, TP53RK (Homo sapiens, UniProt Q96S44); test: KAM-matrix competition in K562 lysate; assay type: binding;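 on 0.001 uM KAM: median log10 fold change of treatment over DMSO control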;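 on 0.01 uM KAM: median log10 fold change of treatment over DMSO control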;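 on 0.1 uM KAM: median log10 fold change of treatment over DMSO control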;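 on 1 uM KAM: median log10 fold change of treatment over DMSO control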;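 on 10 uM KAM: median log10 fold change of treatment over DMSO control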
T6 construct: endogenous in cells; host or cells: K562
T6 sequence (Q96S44 1-253): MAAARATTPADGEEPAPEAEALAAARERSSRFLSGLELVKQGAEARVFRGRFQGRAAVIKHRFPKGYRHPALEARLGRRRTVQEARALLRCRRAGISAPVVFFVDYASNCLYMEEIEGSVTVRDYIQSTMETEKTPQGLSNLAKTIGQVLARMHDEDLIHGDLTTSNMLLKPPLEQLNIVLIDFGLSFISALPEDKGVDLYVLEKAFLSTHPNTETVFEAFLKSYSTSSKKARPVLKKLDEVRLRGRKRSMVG
Experimental: as §1

[8] = read-out: RB50 (the source's name)
[9] = KAM 0.001-10 uM, read-out: RB50 (the source's name)

T1 sequence (Q06187 whole entry): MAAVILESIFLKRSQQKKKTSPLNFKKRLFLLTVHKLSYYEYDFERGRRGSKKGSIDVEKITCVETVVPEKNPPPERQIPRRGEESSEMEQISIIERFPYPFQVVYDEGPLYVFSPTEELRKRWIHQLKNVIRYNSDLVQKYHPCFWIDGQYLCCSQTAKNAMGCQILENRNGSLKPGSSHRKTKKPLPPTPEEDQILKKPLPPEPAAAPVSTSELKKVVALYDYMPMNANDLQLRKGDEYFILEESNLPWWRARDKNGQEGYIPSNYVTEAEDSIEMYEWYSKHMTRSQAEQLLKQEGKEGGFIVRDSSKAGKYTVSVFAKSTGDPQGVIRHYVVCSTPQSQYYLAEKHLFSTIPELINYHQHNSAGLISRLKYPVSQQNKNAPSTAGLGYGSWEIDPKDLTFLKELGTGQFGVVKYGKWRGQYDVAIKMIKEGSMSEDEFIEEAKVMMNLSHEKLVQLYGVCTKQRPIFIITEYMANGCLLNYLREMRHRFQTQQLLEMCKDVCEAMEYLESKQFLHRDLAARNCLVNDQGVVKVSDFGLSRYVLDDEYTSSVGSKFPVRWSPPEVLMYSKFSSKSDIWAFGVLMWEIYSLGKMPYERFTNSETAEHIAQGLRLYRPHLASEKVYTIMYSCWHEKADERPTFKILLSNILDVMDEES
T3 sequence (P07948 whole entry): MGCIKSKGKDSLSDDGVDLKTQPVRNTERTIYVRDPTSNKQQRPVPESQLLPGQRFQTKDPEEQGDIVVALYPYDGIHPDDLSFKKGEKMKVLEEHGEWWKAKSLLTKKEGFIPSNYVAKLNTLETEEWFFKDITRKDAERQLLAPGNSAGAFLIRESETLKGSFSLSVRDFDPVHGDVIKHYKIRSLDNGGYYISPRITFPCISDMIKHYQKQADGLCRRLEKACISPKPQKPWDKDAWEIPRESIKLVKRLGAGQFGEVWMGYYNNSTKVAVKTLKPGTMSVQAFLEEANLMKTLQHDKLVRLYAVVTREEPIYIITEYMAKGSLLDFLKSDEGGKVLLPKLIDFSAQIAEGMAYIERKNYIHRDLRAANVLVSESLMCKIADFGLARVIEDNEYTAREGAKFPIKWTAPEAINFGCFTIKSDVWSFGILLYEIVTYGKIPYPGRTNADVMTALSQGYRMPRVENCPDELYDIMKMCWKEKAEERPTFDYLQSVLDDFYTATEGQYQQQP
T4 sequence (Q13164 whole entry): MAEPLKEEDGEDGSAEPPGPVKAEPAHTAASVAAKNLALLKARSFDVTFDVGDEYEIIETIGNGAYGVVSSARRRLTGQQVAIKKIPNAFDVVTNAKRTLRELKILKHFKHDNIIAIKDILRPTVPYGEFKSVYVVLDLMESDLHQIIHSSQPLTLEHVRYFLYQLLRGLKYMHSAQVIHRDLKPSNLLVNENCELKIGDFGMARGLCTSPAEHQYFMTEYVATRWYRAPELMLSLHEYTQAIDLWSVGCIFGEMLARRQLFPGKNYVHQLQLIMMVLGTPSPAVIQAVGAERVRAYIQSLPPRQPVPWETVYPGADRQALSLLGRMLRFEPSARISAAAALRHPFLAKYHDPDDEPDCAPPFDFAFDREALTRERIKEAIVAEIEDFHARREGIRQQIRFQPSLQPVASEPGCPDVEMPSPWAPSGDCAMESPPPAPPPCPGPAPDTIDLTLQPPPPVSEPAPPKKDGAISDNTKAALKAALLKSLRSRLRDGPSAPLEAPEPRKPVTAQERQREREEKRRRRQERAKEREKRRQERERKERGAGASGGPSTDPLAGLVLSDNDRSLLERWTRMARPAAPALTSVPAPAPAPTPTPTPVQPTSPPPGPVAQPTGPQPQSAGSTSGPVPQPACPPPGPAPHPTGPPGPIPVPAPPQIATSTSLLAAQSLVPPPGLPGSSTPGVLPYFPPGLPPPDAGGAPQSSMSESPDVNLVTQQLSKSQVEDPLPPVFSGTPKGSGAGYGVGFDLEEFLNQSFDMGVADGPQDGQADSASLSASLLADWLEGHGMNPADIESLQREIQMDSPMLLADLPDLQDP

## N#CCc1ccc(Nc2nc(NCCCN)cc(Nc3cc(C4CC4)[nH]n3)n2)cc1 [KAM]
[1]
  IC50: 435 nM
[2]; 0.001 uM KAM
  median Log10 fold change: -0.05218
[2]; 0.01 uM KAM
  median Log10 fold change: -0.04172
[2]; 0.1 uM KAM
  median Log10 fold change: -0.1708
[2]; 1 uM KAM
  median Log10 fold change: -0.3888
[2]; 10 uM KAM
  median Log10 fold change: -0.5091
[2]; [8]
  IC50: 566 nM
[3]; 0.001 uM KAM
  median Log10 fold change: -0.01696
[3]; 0.01 uM KAM
  median Log10 fold change: -0.007903
[3]; 0.1 uM KAM
  median Log10 fold change: -0.1428
[3]; 1 uM KAM
  median Log10 fold change: -0.3696
[3]; 10 uM KAM
  median Log10 fold change: -0.517
[3]; [8]
  IC50: 717 nM
[4]; 0.001 uM KAM
  median Log10 fold change: -0.01474
[4]; 0.01 uM KAM
  median Log10 fold change: -0.009336
[4]; 0.1 uM KAM
  median Log10 fold change: -0.1214
[4]; 1 uM KAM
  median Log10 fold change: -0.4299
[4]; 10 uM KAM
  median Log10 fold change: -0.513
[4]; [8]
  IC50: 601 nM
[5]; [9]
  IC50: > 10000 nM
[5]; relative to 0 uM KAM = 0
  0.001 uM KAM: -0.02869
  0.01 uM KAM: 0.01229
  0.1 uM KAM: -0.142
  1 uM KAM: -0.1326
  10 uM KAM: -0.1898
[6]; [9]
  IC50: > 10000 nM
[6]; relative to 0 uM KAM = 0
  0.001 uM KAM: -0.0133
  0.01 uM KAM: 0.001518
  0.1 uM KAM: -0.1562
  1 uM KAM: -0.3373
  10 uM KAM: -0.1561
[7]; [9]
  IC50: > 10000 nM
[7]; relative to 0 uM KAM = 0
  0.001 uM KAM: 0.009964
  0.01 uM KAM: 0.004194
  0.1 uM KAM: 0.08221
  1 uM KAM: 0.04146
  10 uM KAM: -0.01189
